Reference: patent US11667601B2, “Calcium BOPTA complex” (BRACCO IMAGING S.P.A., priority 2019, dated 2023)

Experiment: Solubility in water of the isolated solid form
Type: physicochemical
Details: solid form obtained by the ethanol precipitation process

Q: With “(4RS)-[4-carboxy-5,8,11-tris(carboxymethyl)-1-phenyl-2-oxa-5,8,11-triazatridecan-13-oato(5-)] calciate(3-) trisodium [Ca-BOPTA trisodium salt]” as the substance, how does the “solubility of the solid form” value read?
A: soluble in water
